Test results as given in PubChem BioAssay (NCI).
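Method: 48-hour compound exposure of cells in 96-well plates, five concentrations, linear interpolation of endpoints. The concentration for 50% growth inhibition is given as GI50. The concentration for full growth arrest is given as TGI.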

What was measured:
Test in all cases: DTP human tumour cell line panel, 48 h
HCT-116 colon = tested on: HCT-116 colon
SF-539 CNS = tested on: SF-539 CNS
HCC-2998 colon = tested on: HCC-2998 colon
CAKI-1 renal = tested on: CAKI-1 renal
BT-549 breast = tested on: BT-549 breast
SK-MEL-5 melanoma = tested on: SK-MEL-5 melanoma
K-562 leukemia = tested on: K-562 leukemia
HOP-62 NSCLC = tested on: HOP-62 NSCLC
MALME-3M melanoma = tested on: MALME-3M melanoma
SNB-75 CNS = tested on: SNB-75 CNS
EKVX NSCLC = tested on: EKVX NSCLC
KM12 colon = tested on: KM12 colon
OVCAR-5 ovarian = tested on: OVCAR-5 ovarian
IGROV1 ovarian = tested on: IGROV1 ovarian
NCI-H226 lung = tested on: NCI-H226 lung
A498 renal = tested on: A498 renal
NCI-H460 lung = tested on: NCI-H460 lung
SF-268 CNS = tested on: SF-268 CNS
ACHN renal = tested on: ACHN renal
MDA-MB-231 breast = tested on: MDA-MB-231 breast
DU-145 prostate = tested on: DU-145 prostate
SN12C renal = tested on: SN12C renal
NCI-H522 lung = tested on: NCI-H522 lung
SR leukemia = tested on: SR leukemia
MCF7 breast = tested on: MCF7 breast
U251 CNS = tested on: U251 CNS
PC-3 prostate = tested on: PC-3 prostate
UACC-257 melanoma = tested on: UACC-257 melanoma
LOX IMVI melanoma = tested on: LOX IMVI melanoma
NCI/ADR-RES ovarian = tested on: NCI/ADR-RES ovarian
UACC-62 melanoma = tested on: UACC-62 melanoma
RXF 393 renal = tested on: RXF 393 renal
SK-MEL-28 melanoma = tested on: SK-MEL-28 melanoma
MOLT-4 leukemia = tested on: MOLT-4 leukemia
TK-10 renal = tested on: TK-10 renal
HS 578T breast = tested on: HS 578T breast
UO-31 renal = tested on: UO-31 renal
HOP-92 NSCLC = tested on: HOP-92 NSCLC
SF-295 CNS = tested on: SF-295 CNS
OVCAR-4 ovarian = tested on: OVCAR-4 ovarian
HCT-15 colon = tested on: HCT-15 colon
SK-OV-3 ovarian = tested on: SK-OV-3 ovarian
M14 melanoma = tested on: M14 melanoma
OVCAR-8 ovarian = tested on: OVCAR-8 ovarian
A549 NSCLC = tested on: A549 NSCLC
HT29 colon = tested on: HT29 colon
COLO 205 colon = tested on: COLO 205 colon
NCI-H23 lung = tested on: NCI-H23 lung
RPMI-8226 leukemia = tested on: RPMI-8226 leukemia
OVCAR-3 ovarian = tested on: OVCAR-3 ovarian
HL-60(TB) leukemia = tested on: HL-60(TB) leukemia
CCRF-CEM leukemia = tested on: CCRF-CEM leukemia
SK-MEL-2 melanoma = tested on: SK-MEL-2 melanoma
SW-620 colon = tested on: SW-620 colon

## COc1ccc(C(=O)N2c3ccccc3Sc3ccccc32)c(C(F)(F)F)c1
HCT-116 colon
  GI50: 505 nM
  TGI: > 100 µM
SF-539 CNS
  GI50: 271 nM
  TGI: 995 nM
HCC-2998 colon
  GI50: 467 nM
  TGI: 32 µM
CAKI-1 renal
  GI50: 692 nM
  TGI: > 100 µM
BT-549 breast
  GI50: 892 nM
  TGI: 13.6 µM
SK-MEL-5 melanoma
  GI50: 692 nM
  TGI: 16.6 µM
K-562 leukemia
  GI50: 349 nM
  TGI: > 100 µM
HOP-62 NSCLC
  GI50: 684 nM
  TGI: > 100 µM
MALME-3M melanoma
  GI50: 25.8 µM
  TGI: > 100 µM
SNB-75 CNS
  GI50: 264 nM
  TGI: > 100 µM
EKVX NSCLC
  GI50: 613 nM
  TGI: > 100 µM
KM12 colon
  GI50: 413 nM
  TGI: 34.4 µM
OVCAR-5 ovarian
  GI50: 1610 nM
  TGI: > 100 µM
IGROV1 ovarian
  GI50: 2200 nM
  TGI: > 100 µM
NCI-H226 lung
  GI50: 1390 nM
  TGI: 83.8 µM
A498 renal
  GI50: 282 nM
  TGI: 877 nM
NCI-H460 lung
  GI50: 383 nM
  TGI: > 100 µM
SF-268 CNS
  GI50: 3.04 µM
  TGI: > 100 µM
ACHN renal
  GI50: 1330 nM
  TGI: > 100 µM
MDA-MB-231 breast
  GI50: 1160 nM
  TGI: 92.2 µM
DU-145 prostate
  GI50: 433 nM
  TGI: > 100 µM
SN12C renal
  GI50: 1300 nM
  TGI: > 100 µM
NCI-H522 lung
  GI50: 320 nM
  TGI: 14.5 µM
SR leukemia
  GI50: 312 nM
  TGI: 76.9 µM
MCF7 breast
  GI50: 411 nM
  TGI: > 100 µM
U251 CNS
  GI50: 500 nM
  TGI: > 100 µM
PC-3 prostate
  GI50: 426 nM
  TGI: > 100 µM
UACC-257 melanoma
  GI50: 13.7 µM
  TGI: > 100 µM
LOX IMVI melanoma
  GI50: 516 nM
  TGI: > 100 µM
NCI/ADR-RES ovarian
  GI50: 370 nM
  TGI: > 100 µM
UACC-62 melanoma
  GI50: 438 nM
  TGI: > 100 µM
RXF 393 renal
  GI50: 362 nM
  TGI: > 100 µM
SK-MEL-28 melanoma
  GI50: 9.17 µM
  TGI: > 100 µM
MOLT-4 leukemia
  GI50: 406 nM
  TGI: > 100 µM
TK-10 renal
  GI50: 16.7 µM
  TGI: > 100 µM
HS 578T breast
  GI50: 472 nM
  TGI: > 100 µM
UO-31 renal
  GI50: 2620 nM
  TGI: > 100 µM
HOP-92 NSCLC
  GI50: 152 nM
  TGI: 3.91 µM
SF-295 CNS
  GI50: 372 nM
  TGI: > 100 µM
OVCAR-4 ovarian
  GI50: 1980 nM
  TGI: > 100 µM
HCT-15 colon
  GI50: 405 nM
  TGI: > 100 µM
SK-OV-3 ovarian
  GI50: 794 nM
  TGI: > 100 µM
M14 melanoma
  GI50: 343 nM
  TGI: > 100 µM
OVCAR-8 ovarian
  GI50: 593 nM
  TGI: > 100 µM
A549 NSCLC
  GI50: 515 nM
  TGI: > 100 µM
HT29 colon
  GI50: 362 nM
  TGI: > 100 µM
COLO 205 colon
  GI50: 319 nM
  TGI: 1480 nM
NCI-H23 lung
  GI50: 578 nM
  TGI: > 100 µM
RPMI-8226 leukemia
  GI50: 595 nM
  TGI: > 100 µM
OVCAR-3 ovarian
  GI50: 332 nM
  TGI: 28.1 µM
HL-60(TB) leukemia
  GI50: 252 nM
  TGI: 793 nM
CCRF-CEM leukemia
  GI50: 87.9 nM
  TGI: > 100 µM
SK-MEL-2 melanoma
  GI50: 677 nM
  TGI: > 100 µM
SW-620 colon
  GI50: 425 nM
  TGI: > 100 µM
